Read-outs that look alike come from different tables or passages of the source.
What was measured:
Cn MRL862 = type: cell-based, Cryptococcus neoformans; conditions: RPMI1640, 37 °C, 48 h
Description: (§1) All microdilution assays with fungi were carried out in accordance with CLSI protocols from M27 for yeasts and M38 for filamentous fungi, respectively, unless otherwise specified.[64],[65] Briefly, 96-well plates were charged with RPMI1640 media, with operating volume in the first column, 200 μL, and half operating volume, 100 μL, in the remaining wells. Drug stock solution in DMSO was aliquoted into the first well in each row. Half of the volume in the dosed well was serially diluted 2-fold until column 11. Column 11 was used as the negative growth control, and column 12 was used as the positive growth control. ON yeast cultures in YPD were washed twice in DD-H2O, resuspended in PBS, and adjusted to 5000 cfu/mL in RPMI. The 96-well plate was inoculated with 100 μL aliquots of cell suspension per well. Plates were incubated at 37 °C for 2 days.
(§2) To assess drug synergy, the initial media charged to the plate contained the peptide at twice the final operating concentration; the remaining processing steps were identical to the MIC experiment. Upon addition of 100 μL of inoculant, the final operating concentration was achieved. Control MIC plates were prepared alongside drug synergy plates to account for the day-to-day variability in any individual MIC. FIC index is computed using eq 1. All MIC assays and drug synergy assays were completed with two technical replicates per 96-well plate and a minimum of two biological replicates per drug combination. If a difference in MIC between the two technical replicates on the plate were observed, only the higher concentration was reported as the MIC to reduce the possibility of type 1 error (false positive) [drawing 1] 1

C. auris B11245 [1] = test: microbe, parasite or virus in culture; type: cell-based, Candida auris; conditions: Candidozyma auris, B11245; compound alone; RPMI1640, 37 °C, 48 h; * = paradoxical growth observed (CAS); read-out: MIC
Procedure, shortened: (§3)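 Yeasts were grown overnight in YPD, washed twice in water, taken up in PBS and diluted to 5000 cfu/mL in RPMI. They were then added to plates holding 2-fold serial drug dilutions in RPMI1640 and incubated at 37 °C for 2 days.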

C. neoformans apt1Δ = test: microbe, parasite or virus in culture; type: cell-based, Cryptococcus neoformans; conditions: Cryptococcus neoformans, 48 h
Procedure, shortened: as §3

C. neoformans MRL862 = test: microbe, parasite or virus in culture; type: cell-based, Cryptococcus neoformans; conditions: Cryptococcus neoformans, MRL862, 48 h
Procedure, shortened: as §3

C. neoformans apt4Δ = test: microbe, parasite or virus in culture; type: cell-based, Cryptococcus neoformans; conditions: Cryptococcus neoformans, 48 h
Procedure, shortened: as §3

C. neoformans H99 = test: microbe, parasite or virus in culture; type: cell-based, Cryptococcus neoformans; conditions: Cryptococcus neoformans, H99; compound alone; RPMI1640, 37 °C, 48 h; read-out: MIC
Procedure, shortened: as §3

C. neoformans crm1Δ = test: microbe, parasite or virus in culture; type: cell-based, Cryptococcus neoformans; conditions: Cryptococcus neoformans, 48 h
Procedure, shortened: as §3

C. neoformans apt3Δ = test: microbe, parasite or virus in culture; type: cell-based, Cryptococcus neoformans; conditions: Cryptococcus neoformans, 48 h
Procedure, shortened: as §3

C. neoformans cdc50Δ = test: microbe, parasite or virus in culture; type: cell-based, Cryptococcus neoformans; conditions: Cryptococcus neoformans, 48 h
Procedure, shortened: as §3

C. neoformans Crm1^OE = test: microbe, parasite or virus in culture; type: cell-based, Cryptococcus neoformans; conditions: Cryptococcus neoformans, 48 h
Procedure, shortened: as §3

C. neoformans apt2Δ = test: microbe, parasite or virus in culture; type: cell-based, Cryptococcus neoformans; conditions: Cryptococcus neoformans, 48 h
Procedure, shortened: as §3

A. fumigatus AF293 [2] = test: microbe, parasite or virus in culture; type: cell-based, Aspergillus fumigatus; conditions: Aspergillus fumigatus, AF293; compound alone; RPMI1640, 37 °C, 48 h; * = paradoxical growth observed (CAS); read-out: MIC
C. auris B11245 [3] = type: cell-based, Candida auris; conditions: RPMI1640, 37 °C, 48 h, CAS: paradoxical growth; for MIC of antifungal in combination with KKOO: MIC = <20% growth; for MIC of antifungal in combination with KKOO-NH2: MIC = well with <20% growth
Description: as §1, §2

C. glabrata FKS2-S663P = test: microbe, parasite or virus in culture; type: cell-based, Candida glabrata; conditions: Nakaseomyces glabratus, FKS2S663P, 48 h
Procedure, shortened: as §3

C. glabrata 2001 = test: microbe, parasite or virus in culture; type: cell-based, Candida glabrata; conditions: Nakaseomyces glabratus, 2001; compound alone; RPMI1640, 37 °C, 48 h; read-out: MIC
Procedure, shortened: as §3

C. glabrata FKS1-S629P = test: microbe, parasite or virus in culture; type: cell-based, Candida glabrata; conditions: Nakaseomyces glabratus, FKS1S629P, 48 h
Procedure, shortened: as §3

C. albicans SC5413 [4] = test: microbe, parasite or virus in culture; type: cell-based, Candida albicans; conditions: Candida albicans, SC5413; compound alone; RPMI1640, 37 °C, 48 h; read-out: MIC
Procedure, shortened: as §3

A. fumigatus AF293 [5] = test: Drug synergy (MIC in peptide-supplemented media); type: cell-based, Aspergillus fumigatus; conditions: RPMI1640, 37 °C, 48 h, CAS: paradoxical growth; for MIC of antifungal in combination with KKOO: MIC = <20% growth; for MIC of antifungal in combination with KKOO-NH2: MIC = well with <20% growth
Description: as §1, §2

C. albicans SC5413 [6] = type: cell-based, Candida albicans; conditions: RPMI1640, 37 °C, 48 h; for MIC of antifungal in combination with KKOO: azole MICs unclear (intermediate phenotype); for MIC of antifungal in combination with KKOO-NH2: azole MICs could not be determined (intermediate phenotype)
Description: as §1, §2

C[C@@H]1[C@H](O)[C@@H](C)/C=C/C=C/C=C/C=C/C=C/C=C/C=C/[C@H](O[C@@H]2O[C@H](C)[C@@H](O)[C@H](N)[C@@H]2O)C[C@@H]2O[C@](O)(C[C@@H](O)C[C@@H](O)[C@H](O)CC[C@@H](O)C[C@@H](O)CC(=O)O[C@H]1C)C[C@H](O)[C@H]2C(=O)O [AMB, amphotericin B]
0.016 µg/mL: MIC of antifungal in combination with KKOO-NH2 (Cn MRL862; +4 μg/mL KKOO-NH2) | MIC of antifungal in combination with KKOO (Cn MRL862; +4 μg/mL KKOO)
0.25 µg/mL: MIC of antifungal in combination with KKOO (Cn MRL862; +0 μg/mL KKOO (control)) | MIC of antifungal in combination with KKOO-NH2 (Cn MRL862; +0 μg/mL KKOO-NH2 (control)) | MIC (C. neoformans apt4Δ) | MIC (C. neoformans apt2Δ) | MIC of antifungal in combination with KKOO-NH2 (C. auris B11245 [3]; +4 μg/mL KKOO-NH2) | MIC of antifungal in combination with KKOO (C. auris B11245 [3]; +4 μg/mL KKOO) | MIC of antifungal in combination with KKOO (A. fumigatus AF293 [5]; +1 μg/mL KKOO) | MIC of antifungal in combination with KKOO-NH2 (A. fumigatus AF293 [5]; +2 μg/mL KKOO-NH2) | MIC of antifungal in combination with KKOO (A. fumigatus AF293 [5]; +2 μg/mL KKOO) | MIC of antifungal in combination with KKOO (A. fumigatus AF293 [5]; +4 μg/mL KKOO) | MIC of antifungal in combination with KKOO-NH2 (C. albicans SC5413 [6]; +2 μg/mL KKOO-NH2) | MIC of antifungal in combination with KKOO (C. albicans SC5413 [6]; +2 μg/mL KKOO) | MIC of antifungal in combination with KKOO-NH2 (C. albicans SC5413 [6]; +4 μg/mL KKOO-NH2)
0.5 µg/mL: MIC (C. neoformans apt1Δ) | MIC (C. neoformans H99) | MIC (C. neoformans crm1Δ) | MIC (C. neoformans apt3Δ) | MIC (C. neoformans cdc50Δ) | MIC (C. neoformans Crm1^OE) | MIC of antifungal in combination with KKOO-NH2 (C. auris B11245 [3]; +1 μg/mL KKOO-NH2) | MIC of antifungal in combination with KKOO (C. auris B11245 [3]; +1 μg/mL KKOO) | MIC of antifungal in combination with KKOO-NH2 (C. auris B11245 [3]; +2 μg/mL KKOO-NH2) | MIC of antifungal in combination with KKOO (C. auris B11245 [3]; +2 μg/mL KKOO) | MIC of antifungal in combination with KKOO-NH2 (A. fumigatus AF293 [5]; +1 μg/mL KKOO-NH2) | MIC of antifungal in combination with KKOO-NH2 (A. fumigatus AF293 [5]; +4 μg/mL KKOO-NH2) | MIC of antifungal in combination with KKOO-NH2 (A. fumigatus AF293 [5]; +8 μg/mL KKOO-NH2) | MIC of antifungal in combination with KKOO-NH2 (C. albicans SC5413 [6]; +1 μg/mL KKOO-NH2) | MIC of antifungal in combination with KKOO (C. albicans SC5413 [6]; +1 μg/mL KKOO)
0.125 µg/mL: MIC of antifungal in combination with KKOO-NH2 (Cn MRL862; +1 μg/mL KKOO-NH2) | MIC of antifungal in combination with KKOO (Cn MRL862; +1 μg/mL KKOO) | MIC (C. neoformans MRL862) | MIC of antifungal in combination with KKOO (C. albicans SC5413 [6]; +4 μg/mL KKOO) | MIC of antifungal in combination with KKOO (C. albicans SC5413 [6]; +8 μg/mL KKOO)
1 µg/mL: MIC (C. auris B11245 [1]) | MIC (A. fumigatus AF293 [2]) | MIC of antifungal in combination with KKOO (C. auris B11245 [3]; +0 μg/mL KKOO (control)) | MIC of antifungal in combination with KKOO-NH2 (C. auris B11245 [3]; +0 μg/mL KKOO-NH2 (control)) | MIC (C. glabrata FKS2-S663P) | MIC (C. glabrata 2001) | MIC (C. glabrata FKS1-S629P) | MIC (C. albicans SC5413 [4]) | MIC of antifungal in combination with KKOO (A. fumigatus AF293 [5]; +0 μg/mL KKOO (control)) | MIC of antifungal in combination with KKOO-NH2 (A. fumigatus AF293 [5]; +0 μg/mL KKOO-NH2 (control)) | MIC of antifungal in combination with KKOO (C. albicans SC5413 [6]; +0 μg/mL KKOO (control)) | MIC of antifungal in combination with KKOO-NH2 (C. albicans SC5413 [6]; +0 μg/mL KKOO-NH2 (control))
0.031 µg/mL: MIC of antifungal in combination with KKOO-NH2 (Cn MRL862; +2 μg/mL KKOO-NH2) | MIC of antifungal in combination with KKOO (Cn MRL862; +2 μg/mL KKOO)
